“Also recorded” adds a separate entry of the source.
Test system: MHFD offspring
Assay: Three-chamber social test in MHFD offspring
Format: in vivo, mice
Details: in drinking water, 4 weeks
Description: Crawley's three-chamber test for sociability and preference for social novelty was performed as described (Silverman et al., 2010). In brief, the mouse first experienced a 10-minute period of habituation during which it was allowed to freely explore a 60×40×23 cm Plexiglass arena divided into three equally sized, interconnected chambers (Left, Center, Right). Sociability was measured during a second ten-minute period in which the subject could interact either with an empty wire cup (Empty) or a wire cup containing an age and sex-matched stranger conspecific (Mouse 1). Time spent interacting (sniffing, crawling upon) with either the empty cup or the stranger mouse contained in the other cup as well as time spent in each chamber was recorded using the AnyMaze software, by independent observers. Empty cup placement in the Left or Right chamber during the Sociability period was counterbalanced between trials. Finally, preference for social novelty was assayed by introducing a second stranger mouse (Mouse 2) into the previously the empty wire cup. Time spent in each chamber as well as time spent interacting with either Mouse 1 or Mouse 2 was recorded using the automated AnyMaze software by independent observers. Lactobacillus reuteri MM4-1A (ATCC-PTA-6475) and Lactobacillus johnsonii (ATCC 33200) were cultured anaerobically in MRS broth in a 90% N2, 5% CO2, 5% H2 environment. L. reuteri was heat-killed by keeping the bacteria at 80° C. for 20 minutes (Wang et al., 2010). Bacterial viability was assessed by plating and the efficacy of the heat-kill procedure was confirmed by the absence of colony growth following plating. Cultures were centrifuged, washed, and resuspended in anaerobic solution (PBS) and frozen at −80° C. until use. PBS, live or heat-killed L. reuteri were added to the drinking water, which was changed daily to minimize dosage variability. Whereas the experimental group received live bacteria, one control group received identically prepared cultures of heat-killed bacteria. A second group of control mice received water treated with PBS alone. Live and heat-killed L. reuteri were supplied at a dosage of 1×10^8 organisms/mouse/day continuously in drinking water. Mice consumed the treated water ad libitum over the treatment period. The treated drinking water for each group was replaced daily two hours prior to the onset of the dark cycle to minimize variation in microbial exposure. Behavioral assays were initiated after 4-weeks of L. reuteri or control treatment. The protocol of the L. johnsonii preparation and administration matched the L. reuteri protocol. Fecal samples for sequencing and tissue used in the immunofluorescence studies were collected at the end of the treatment. Oxytocin was obtained from Tocris Bioscience (product 1910) and solubilized in 10% dimethyl sulfoxide (DMSO) in PBS. 10% DMSO in PBS was used as the vehicle control. Mice received oxytocin intranasally (at approximately 200 μg/kg) thirty minutes prior to behavior. 1.25 μl of oxytocin or vehicle solution was injected into each nostril from P10 pipette. Oxytocin dose was selected according to dosages reported to rescue social behavior in genetic models phenotypically expressing ASD-like behaviors (Penagarikano et al., 2015).

Lactobacillus johnsonii (ATCC 33200) [L. johnsonii]
social behavior / social deficits (sociability and preference for social novelty): failed to rescue social behaviors; also recorded: Failed to Reverse Social Deficits

Source: patent publication US11135252B2, “Probiotic therapies for developmental disorders and other neurological disorders” (Baylor College of Medicine, priority 2016, dated 2021)
